Patent US20130178523A1, “ANTI-CANCER COMPOSITIONS AND METHODS” (THE PENN STATE RESEARCH FOUNDATION, priority 2007, published 2013)
Where two headings read alike, the source gives them in different places.

Key:
[1] = tested on: T-98-G; assay: MTS assay, glioblastoma cells; details: Homo sapiens, T98G, 24 h
[2] = tested on: PC-3; assay: MTS assay, prostate cancer cells; details: Homo sapiens, PC-3, 24 h
[3] = tested on: Caco-2; assay: MTS assay, colon cancer cells; details: Homo sapiens, Caco-2, 24 h
[4] = tested on: 1205 Lu melanoma cells; assay: MTS cell viability assay, 1205 Lu; details: Homo sapiens, 24 h
[5] = tested on: HT-1080; assay: MTS assay, fibrosarcoma cells; details: Homo sapiens, HT-1080, 24 h
[6] = tested on: UACC 903 melanoma cells; assay: MTS cell viability assay, UACC 903; details: Homo sapiens, UACC-903, 24 h
[7] = tested on: UACC 903 melanoma cells; assay: Tumor development in nude mice, subcutaneous UACC 903, i.p. treatment; details: for melanoma tumor volume: 0.76 μmoles (3 ppm selenium) i.p. thrice per week, day 24, doses 3× lower than isothiocyanates; for tumor burden: UACC 903
[8] = tested on: MDA-MB-231; assay: MTS assay, breast cancer cells; details: Homo sapiens, MDA-MB-231, 24 h
[9] = tested on: WM115 melanoma cells; assay: MTS cell viability assay, WM115; details: Homo sapiens, WM-115, 24 h
[10] = tested on: UACC 903 cells; assay: Cell cycle analysis (propidium iodide, FACScan); details: 24 hours
[11] = tested on: UACC 903 cells; assay: BrdU ELISA cellular proliferation; assay type: cell-based, human; details: 24 hours; for proliferative potential with increasing concentrations: 5, 10, 15 μM
Protocol: Proliferation rate is measured using a BrdU ELISA kit (Roche Applied Sciences, Indianapolis, Ind.).
BrdUrd is used to label cells for 4-6 hours. At 15 μM concentration, ISC-4 and ISC-6 reduced UACC 903 cellular proliferative potential by ˜80-90% compared to controls. Results represent the average of 3 independent experiments; bars represent SEM. The average value is represented as the percentage of control DMSO treated cells.

[12] = tested on: Akt signaling pathway; assay: Western blot of Akt signaling pathway in cultured melanoma cells (FIG. 9); details: 24 hours
[13] = tested on: UACC 903 cells; assay: Apo-ONE caspase-3/7 apoptosis assay; assay type: cell-based, human; details: 24 hours; for cellular apoptosis with increasing concentrations (caspase-3/7 activity, words): 5, 10, 15 μM
Protocol: Apoptosis rates are measured using an Apo-ONE Homogenous caspase-3/7 Assay kit (Promega Corporation, Madison, Wis.).
The isoselenocyanate compounds promote apoptosis in melanoma cells. […] The graphs in FIGS. 3A and 3B show fold increase in caspase-3/7 activity relative to DMSO vehicle treated cells on the x-axis. Results represent average of 3 independent experiments. Bars indicate SEM.

[14] = Toxicity assessments in nude mice (blood parameters, histology); assay type: in vivo
Description: Animals are sacrificed by CO2 asphyxiation and blood collected from each animal in plasma separator tubes with lithium heparin (BD Microtainer, BD, Franklin Lakes, N.J.) following cardiac puncture and analyzed for AST (aspartate aminotransferase), ALT, (alanyl aminotransferase), alkaline phosphatase, glucose and creatinine to ascertain liver, heart, kidney and pancreas related toxicity. For morphological examination of blood cells, whole blood is collected in microtainer tubes containing K2EDTA (BD Microtainer, BD, Franklin Lakes, N.J.) and RBC, WBC, lymphocytes, monocytes, eosinophils, platelets, total hemoglobin and hematocrit percentage analyzed. Blood is also microscopically examined for segregates, polychromatin bodies, and smudge cells. A portion of liver, heart, kidney, spleen, intestine pancreas and adrenal from each animal is formalin fixed and paraffin-embedded to examine toxicity-related changes in cell or organ morphology by H&E staining.

[15] = tested on: 1205 Lu melanoma cells; assay: Tumor development in nude mice, subcutaneous 1205 Lu, i.p. treatment; assay type: in vivo; details: 0.76 μmoles i.p. thrice per week
Description: (Monday, Wednesday and Friday).

[16] = tested on: FF2441 (fibroblast cells); assay: IC-50 in various cell lines (Table V), FF2441; assay type: cell-based; details: Homo sapiens
[17] = tested on: CaCO2 (Colon Carcinoma); assay: IC-50 in various cell lines (Table V), CaCO2; assay type: cell-based; details: Homo sapiens, Caco-2
[18] = tested on: 1205LU (Melanoma); assay: IC-50 in various cell lines (Table V), 1205LU; assay type: cell-based; details: Homo sapiens
[19] = tested on: UACC-903 (Melanoma); assay: IC-50 in various cell lines (Table V), UACC-903; assay type: cell-based; details: Homo sapiens
[20] = tested on: PC-3 (Prostate); assay: IC-50 in various cell lines (Table V), PC-3; assay type: cell-based
[21] = tested on: MDA-MB 231 (breast); assay: IC-50 in various cell lines (Table V), MDA-MB 231; assay type: cell-based; details: Homo sapiens
[22] = tested on: IGROV-1 (ovarian carcinoma); assay: IC-50 in various cell lines (Table V), IGROV-1; assay type: cell-based; details: Homo sapiens
[23] = tested on: HT1080 (Soft Tissue Sarcoma); assay: IC-50 in various cell lines (Table V), HT1080; assay type: cell-based; details: Homo sapiens, HT-1080
[24] = tested on: A549 (lung); assay: IC-50 in various cell lines (Table V), A549; assay type: cell-based; details: Homo sapiens
[25] = tested on: UACC 903M cells; assay: IC50 of NAC conjugate in UACC 903M cells; assay type: cell-based
[26] = 0.76 μmoles i.p. thrice per week

Row | Structure (SMILES) | IC50 [1] | IC50 [2] | IC50 [3] | IC50 [4] | IC50 [5] | IC50 [6] | IC50 [8] | IC50 [9] | G0/G1 cell population ([10]; 15 μM) | G2/M cell population ([10]; 15 μM) | S cell population ([10]; 15 μM) | subG0/G1 cell population ([10]; 15 μM) | further results
1 | S=C=NCc1ccccc1 [BITC, Benzyl isothiocyanate, reference compound] | > 100 µM | > 50 µM | 15 ± 2 µM | > 25 µM | > 50 µM | 15 µM | 42 ± 3 µM | 13 µM | – | – | – | – | effect on tumor size ([7]; 2.5 micromoles i.p. thrice per week, FIG. 18C): most effective
2 | [Se]=C=NCc1ccccc1 [ISC-1, Benzyl Isoselenocyanate] | 43 ± 4 µM | 24 ± 1 µM | 13 ± 3 µM | > 25 µM | 13 ± 3 µM | 16 µM | 29 ± 2 µM | > 25 µM | – | – | – | – | effect on tumor size ([7]; 0.76 μmoles i.p. thrice per week, Example 30): failed to show any effect
3 | [Se]=C=NCCc1ccccc1 [ISC-2, Phenylethyl Isoselenocyanate] | 24 ± 1 µM | 16 ± 1 µM | 11 ± 1 µM | 18 µM | 12 ± 3 µM | 12 µM | 20 ± 3 µM | 8 µM | – | – | – | – | melanoma tumor volume [7]: reduce tumor volume
4 | [Se]=C=NCCCCCCc1ccccc1 [ISC-6, Phenylhexyl Isoselenocyanate] | 23 ± 2 µM | 14 ± 1 µM | 10 ± 1 µM | 7 µM | 12 ± 1 µM | 10 ± 1 µM | 22 ± 2 µM | 7 µM | 41.6 | 26.1 | 32.2 | 15.9 | G0/G1 cell population ([10]; 5 μM): 56.8; G2/M cell population ([10]; 5 μM): 13.5; S cell population ([10]; 5 μM): 31.5; subG0/G1 cell population ([10]; 5 μM): 1.5; G0/G1 cell population ([10]; 10 μM): 44.9; G2/M cell population ([10]; 10 μM): 24.5; S cell population ([10]; 10 μM): 30.5; subG0/G1 cell population ([10]; 10 μM): 7.6; melanoma tumor volume [7]: reduce tumor volume; proliferative potential with increasing concentrations [11]: decreased proliferative potential; fold more effective than PBITC or PHITC at inhibiting cellular proliferation ([11]; 5-15 μM): ~2 fold; concentration completely inhibiting the Akt3 pathway (Western blot) [12]: 10 µM; cellular apoptosis with increasing concentrations (caspase-3/7 activity, words) [13]: increase cellular apoptosis; fold more effective than PBITC at inducing apoptosis ([13]; caspase-3/7 activity, 5-15 μM): ~2 fold
5 | S=C=NCCCCc1ccccc1 [PBITC, phenylbutylisothiocyanate, reference compound] | 35 ± 1 µM | 24 ± 2 µM | 27 ± 2 µM | 19 ± 5 µM | 15 ± 1 µM | 15 ± 1 µM | 27 ± 2 µM | 7 ± 1 µM | 42.1 | 27.4 | 30.5 | 20.8 | blood SGOT, SGPT, alkaline phosphatase, glucose and creatinine ([14]; 0.76 μmoles i.p. 3 times per week for 3 weeks, compared to vehicle DMSO): did not alter parameters; basal urea nitrogen (BUN), creatinine and glucose levels ([14]; treated versus control animals): not significantly different; G0/G1 cell population ([10]; 5 μM): 37.4; G2/M cell population ([10]; 5 μM): 34.7; S cell population ([10]; 5 μM): 27.8; subG0/G1 cell population ([10]; 5 μM): 4.9; G0/G1 cell population ([10]; 10 μM): 37.2; G2/M cell population ([10]; 10 μM): 31.9; S cell population ([10]; 10 μM): 30.9; subG0/G1 cell population ([10]; 10 μM): 10.4; tumor burden [15]: ineffective at reducing tumor burden; tumor burden [7, 26]: ineffective at reducing tumor burden; proliferative potential with increasing concentrations [11]: decreased proliferative potential; cellular apoptosis with increasing concentrations (caspase-3/7 activity, words) [13]: increase cellular apoptosis
6 | S=C=NCCc1ccccc1 [PEITC, phenylethyl isothiocyanate, reference compound] | > 100 µM | 24 ± 2 µM | 14 ± 2 µM | 24 ± 2 µM | 15 ± 1 µM | 12 ± 1 µM | 38 ± 6 µM | 12 ± 1 µM | – | – | – | – | –
7 | S=C=NCCCCCCc1ccccc1 [PHITC, Phenylhexylisothiocyanate] | 26 ± 2 µM | 17 ± 1 µM | 49 ± 9 µM | 11 ± 4 µM | 29 ± 3 µM | 15 ± 2 µM | 24 ± 2 µM | 8 ± 1 µM | 40.7 | 29.7 | 29.6 | 12.5 | G0/G1 cell population ([10]; 5 μM): 58.7; G2/M cell population ([10]; 5 μM): 13.1; S cell population ([10]; 5 μM): 28.2; subG0/G1 cell population ([10]; 5 μM): 1.4; G0/G1 cell population ([10]; 10 μM): 43.8; G2/M cell population ([10]; 10 μM): 27.5; S cell population ([10]; 10 μM): 28.7; subG0/G1 cell population ([10]; 10 μM): 5.4; tumor burden [15]: ineffective at reducing tumor burden; tumor burden [7, 26]: ineffective at reducing tumor burden; proliferative potential with increasing concentrations [11]: decreased proliferative potential; cellular apoptosis with increasing concentrations (caspase-3/7 activity, words) [13]: increase cellular apoptosis
8 | N#C[Se]CCCCCCc1ccccc1 [PHSC, Phenylhexyl selenocyanate] | – | – | – | – | – | – | – | – | 61.4 | 11.5 | 26.9 | 2.4 | –
9 | C[S+]([O-])CCCCN=C=[Se] (stereo not drawn) [SFN Iso Se, 1-isoselenocyanato-4-(methylsulfinyl)butane] | – | – | – | – | – | – | – | – | – | – | – | – | IC50 ([16]; FF2441): > 50 µM; IC50 [17]: 16 ± 0.4 µM; IC50 ([18]; 1205Lu): 39.2 ± 2 µM; IC50 ([19]; UACC-903): 17 ± 0.95 µM; IC50 [20]: 24.8 ± 0.58 µM; IC50 ([21]; MDA-MB-231): 20 ± 0.46 µM; tumor development ([7]; 0.76 micromoles (3 ppm selenium) i.p., compared to controls, FIG. 14A): inhibition of tumor development; IC50 ([22]; IGROV-1): > 50 µM; IC50 [23]: 25.6 ± 1.82 µM; IC50 ([24]; A549): 35 ± 1.7 µM
10 | C[S+]([O-])CCCCN=C=S (stereo not drawn) [SFN, sulforaphane, reference compound] | – | – | – | – | – | – | – | – | – | – | – | – | IC50 ([16]; FF2441 (fibroblast cells), read-out: IC-50): > 50 µM; IC50 ([17]; CaCO2 (Colon Carcinoma), read-out: IC-50): 48 ± 5.9 µM; IC50 ([18]; 1205LU (Melanoma), read-out: IC-50): > 50 µM; IC50 ([19]; UACC-903 (Melanoma), read-out: IC-50): 40 ± 0.89 µM; IC50 ([20]; PC-3 (Prostate), read-out: IC-50): > 50 µM; IC50 ([21]; MDA-MB 231 (breast), read-out: IC-50): 57 ± 5 µM; IC50 ([22]; IGROV-1 (ovarian carcinoma), read-out: IC-50): > 50 µM; IC50 ([23]; HT1080 (Soft Tissue Sarcoma), read-out: IC-50): > 50 µM; IC50 ([24]; A549 (lung), read-out: IC-50): 73 ± 3.6 µM
11 | CC(=O)NC(CSC(=[Se])NCCCCc1ccccc1)C(=O)O (stereo not drawn) [compound 5] | – | – | – | – | – | – | – | – | – | – | – | – | IC50 [25]: 17 ± 2 µM
